Measured values published in ChEMBL document CHEMBL5058564, “EUbOPEN Chemogenomics Library 2 (Incucyte)” (2022).

How the values were obtained:
Type in all cases: toxicity, cell-based
[1] = system: HEK-293T; experiment: Incucyte cell viability with HEK293T; conditions: human, 10 µM, compound concentration 10 uM
[2] = system: Fibroblast; experiment: Incucyte cell viability with human fibroblast; conditions: 10 µM, compound concentration 10 uM
[3] = system: U2OS; experiment: Incucyte cell viability with U2OS; conditions: human, 10 µM, compound concentration 10 uM
[4] = 0 h, replicate number 1, timepoint 0 hours
[5] = 0 h, replicate number 2, timepoint 0 hours
[6] = 24 h, replicate number 1, timepoint 24 hours
[7] = 6 h, replicate number 1, timepoint 6 hours
[8] = 12 h, replicate number 1, timepoint 12 hours
[9] = 18 h, replicate number 1, timepoint 18 hours
[10] = 6 h, replicate number 2, timepoint 6 hours
[11] = 12 h, replicate number 2, timepoint 12 hours
[12] = 18 h, replicate number 2, timepoint 18 hours
[13] = 24 h, replicate number 2, timepoint 24 hours
Note: unitless GR value; below 1 slowed growth and below 0 cell loss.

SMILES | Growth Rate [1, 5] | Growth Rate [1, 6] | Growth Rate [2, 4] | Growth Rate [2, 5] | Growth Rate [3, 4] | Growth Rate [3, 5] | Growth Rate [3, 7] | Growth Rate [3, 8] | Growth Rate [3, 9] | Growth Rate [3, 6] | Growth Rate [1, 10] | Growth Rate [1, 11] | Growth Rate [1, 9] | Growth Rate [2, 7] | Growth Rate [2, 8] | Growth Rate [2, 9] | Growth Rate [2, 6] | Growth Rate [3, 11] | Growth Rate [3, 12] | Growth Rate [1, 8] | other results
CC(C)Oc1ccc(-c2c[nH]cc2CN(C)CCO)cc1 | 0.6 | 1 | 0.53 | 0.41 | -0.46 | 0.69 | 0.97 | 0.45 | 0.71 | 0.94 |  |  |  |  |  |  |  |  |  |  | Growth Rate [1, 4]: 0.59
Cc1ccc(Cn2nc(C(=O)N[C@@H]3C(C)(C)[C@@H]4CC[C@@]3(C)C4)cc2-c2ccc(Cl)c(C)c2)cc1 |  | 0.95 |  |  | -1 |  |  | 0.92 |  | 0.86 | 0.75 | 0.96 | 0.94 | 0.46 | 0.76 | 0.78 | 0.72 | 0.74 | 0.82 |  | Growth Rate [2, 10]: 0.01; Growth Rate [2, 11]: 0.14; Growth Rate [3, 10]: 0.89; Growth Rate [3, 13]: 0.74
COc1ccc2c(c1)C(C(=O)N(Cc1ccc(N(C)C)cc1)c1ccc(C(C)C)cc1)CCC2.Cl (configuration not stated) | 0.72 | 0.52 |  |  | -0.58 | -1 | 0.25 | 0.93 | 0.73 |  |  | 0.46 | 0.43 | 0.76 |  |  | 0.93 | 0.84 | 0.81 | 0.27 | Growth Rate [1, 4]: 0.39; Growth Rate [1, 12]: 0.59; Growth Rate [1, 13]: 0.76; Growth Rate [3, 13]: 0.79
N[C@@]1(C(=O)O)CC[C@H]2[C@H](C(=O)O)[C@H]21 | 0.94 |  | -0.03 | 0.85 |  | -1 | 0.86 | 0.67 | 0.7 |  |  |  |  | 0.5 | 0.44 | 0.57 | 0.52 | 0.94 | 1 |  | Growth Rate [1, 4]: 0.6; Growth Rate [1, 13]: 0.86; Growth Rate [2, 11]: 0.63; Growth Rate [2, 12]: 0.79; Growth Rate [2, 13]: 0.35; Growth Rate [3, 10]: 0.76; Growth Rate [3, 13]: 0.97
CSc1cc2c(cc1C(F)(F)F)N(C(=O)Nc1cccnc1)CC2 | -0.27 | 0.64 | -0.3 | 0.46 |  |  |  |  | 0.84 | 0.99 |  |  | 0.75 |  |  |  |  | 0.94 |  | 0.63 | Growth Rate [1, 7]: 0.82; Growth Rate [3, 13]: 0.93
CCCn1c(=O)c2[nH]c(C3CCCC3)nc2n(CCC)c1=O [1,3-DIPROPYL-8-CYCLOPENTYLXANTHINE [DPCPX]] |  | 0.72 | 0.19 | 0.38 | -0.53 | -1 |  |  |  |  | 0.79 |  | 0.81 | -0.31 | 0.03 | -0.16 | -0.1 |  | 0.95 | 0.84 | Growth Rate [1, 4]: 0.58; Growth Rate [1, 7]: 0.57
CC[C@H](Nc1ncnc2[nH]cnc12)c1nc2cccc(F)c2c(=O)n1-c1ccccc1 [IDELALISIB] |  | 0.64 |  |  | 0.06 | -0.03 | 0.46 | 0.4 | 0.44 | 0.59 | 0.76 | 0.57 | 0.56 | -0.73 | -0.05 | -0.04 | -0.13 | 0.55 | 0.68 | 0.52 | Growth Rate [1, 7]: 0.2; Growth Rate [1, 12]: 0.7; Growth Rate [1, 13]: 0.68; Growth Rate [2, 10]: 0.36; Growth Rate [2, 11]: 0.48; Growth Rate [2, 12]: 0.59; Growth Rate [2, 13]: 0.75; Growth Rate [3, 10]: 0.59; Growth Rate [3, 13]: 0.73
CC(C)N(CCCCOCC(=O)NS(C)(=O)=O)c1cnc(-c2ccccc2)c(-c2ccccc2)n1 [SELEXIPAG] | 0.73 |  | 0.56 | 0.34 | 0.21 | -1 | 0.41 |  | 0.99 | 1 | 0.76 | 0.73 |  | 0.5 | 0.75 | 0.76 | 0.48 | 0.8 | 0.98 | 0.89 | Growth Rate [1, 4]: 0.99
Cl.FC(F)(F)c1ccc(N2CCNCC2)nc1Cl | 0.55 | 0.75 | 0.87 | 0.43 |  | 0.39 | 0.77 | 0.84 | 0.93 |  | 0.92 | 0.95 | 0.79 | 0.27 | 0.59 | 0.46 | 0.59 | 0.78 | 0.87 | 0.89 | Growth Rate [1, 7]: 0.75; Growth Rate [1, 12]: 0.89; Growth Rate [1, 13]: 0.82; Growth Rate [3, 10]: 0.86; Growth Rate [3, 13]: 0.96
O=C(O)CCn1c2c(c3ccccc31)C[C@H](NS(=O)(=O)c1ccc(F)cc1)CC2 [RAMATROBAN] |  |  | -0.24 | 0.9 |  | -1 |  | 0.75 | 0.98 | 0.97 | 0.71 | 0.72 |  |  |  |  |  | 0.9 | 0.9 | 0.91 | Growth Rate [1, 12]: 0.76; Growth Rate [2, 10]: 0.99
